For series [1], the target named is T1, human DNA polymerase gamma (Homo sapiens, UniProt P54098).
T1 sequence (P54098 1-1239): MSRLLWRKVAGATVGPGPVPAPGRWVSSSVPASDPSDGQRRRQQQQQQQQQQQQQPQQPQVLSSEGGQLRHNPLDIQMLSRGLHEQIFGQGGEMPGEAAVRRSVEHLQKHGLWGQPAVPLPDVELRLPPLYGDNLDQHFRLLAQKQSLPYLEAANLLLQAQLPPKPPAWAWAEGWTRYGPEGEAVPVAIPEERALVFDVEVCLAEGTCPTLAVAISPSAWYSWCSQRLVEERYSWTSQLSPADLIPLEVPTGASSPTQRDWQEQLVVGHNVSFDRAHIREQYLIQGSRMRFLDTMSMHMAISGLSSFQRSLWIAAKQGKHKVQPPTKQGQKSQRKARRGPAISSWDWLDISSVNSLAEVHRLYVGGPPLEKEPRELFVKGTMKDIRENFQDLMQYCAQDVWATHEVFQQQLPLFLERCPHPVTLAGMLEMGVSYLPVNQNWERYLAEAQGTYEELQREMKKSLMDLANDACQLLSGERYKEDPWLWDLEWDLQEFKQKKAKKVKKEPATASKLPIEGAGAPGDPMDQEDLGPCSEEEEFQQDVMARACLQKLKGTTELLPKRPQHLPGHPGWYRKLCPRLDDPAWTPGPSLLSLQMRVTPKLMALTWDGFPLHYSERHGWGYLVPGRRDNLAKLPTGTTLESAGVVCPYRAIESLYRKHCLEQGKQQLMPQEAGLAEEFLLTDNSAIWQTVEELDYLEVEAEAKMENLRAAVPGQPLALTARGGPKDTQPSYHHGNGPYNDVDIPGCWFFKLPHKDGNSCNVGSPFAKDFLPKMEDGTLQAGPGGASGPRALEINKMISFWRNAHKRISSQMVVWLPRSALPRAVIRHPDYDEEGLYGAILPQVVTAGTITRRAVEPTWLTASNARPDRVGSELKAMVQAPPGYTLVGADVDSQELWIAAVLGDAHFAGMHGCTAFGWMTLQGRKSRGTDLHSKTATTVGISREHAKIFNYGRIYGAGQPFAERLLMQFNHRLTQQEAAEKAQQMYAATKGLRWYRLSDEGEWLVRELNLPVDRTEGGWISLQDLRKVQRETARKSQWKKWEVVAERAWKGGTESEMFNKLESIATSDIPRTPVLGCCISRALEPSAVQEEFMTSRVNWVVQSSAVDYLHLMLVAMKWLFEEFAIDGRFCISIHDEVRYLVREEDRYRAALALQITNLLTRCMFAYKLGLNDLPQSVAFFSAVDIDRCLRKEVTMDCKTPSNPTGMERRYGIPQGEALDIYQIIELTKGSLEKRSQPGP
The experiment in a line: Human cellular DNA polymerase gamma assay. Format: biochemical. The source says: HIV RT, like other viral polymerase, shares limited structural homology with the cellular DNA polymerases responsible for normal nuclear and mitochondrial DNA synthesis and repair. This raises the formal possibility that inhibitors of HIV RT might inhibit cellular polymerases, resulting in cellular toxicity. In particular, inhibition of polymerase gamma has the potential to result in mitochondrial toxicity. The ability of Compound I and Compound III to inhibit cellular DNA polymerases was assessed using standard in vitro assays (Table 5).

The test system of series [2] is HIV-1 BH10 wild-type virus. The series can be described thus: CPE / cell protection assay, MT-4 cells, BH10 wild-type. Particulars: for EC50: Human immunodeficiency virus 1, MT4; for Fold Change, W.T.: Table 9, CPE. Format: cell-based. As to the method: (§1) The activity of the compounds was also assessed with the same virus and cell type using a different assay readout based on cytopathic effect (CPE).
(§2) MT-4 cells (Source: NIH Catalog #120) were seeded onto 96-well cell culture plates (1×10^4 cells per well in 50 μL).
(§3) The final DMSO concentration in the assay was 0.5% in 120 μL. Cell cultures were then incubated at 37° C./5% CO2 for 4 days. Then, Cell Titer 96 AQueous One Solution Cell Proliferation Assay (Promega) was used to measure cell viability. Briefly, the One Solution Reagent was added directly to culture wells (20 μL/well), incubated for 5 hours, and the absorbance was recorded at 492 nm using the Sunrise Tecan Spectrophotometer.
(§4) The EC50 values were determined from the percent inhibition versus concentration data using a sigmoidal non-linear regression analysis based on four parameters with Tecan Magellan software.

In series [3] the test system is HIV-1 BH10 K103N mutant virus. The experiment in a line: microbe, parasite or virus in culture. Particulars: for Fold Change, K103N: Table 9, CPE. The class given is cell-based. As to the method: as §1, §2, §3, §4
The next series concerns HIV-1 NL4-3 w.t. virus. The series can be described thus: microbe, parasite or virus in culture. The class given is cell-based. Particulars: for Fold Change, W.T.: Table 11, NL4-3.
For a further series, the system named is HIV-1 IIIB in U937 cells. The series can be described thus: Drug susceptibility assay, IIIB in U937 cells. The class given is cell-based. To be noted: Human immunodeficiency virus 1, IIIB. The source says:
(§5) The virus and host-cell dependency of Compound I, Compound III and control drugs was further examined in drug susceptibility assays performed across 3 different subtype B wild-type HIV-1 strains and 5 different cell lines.

Series [4] relates to HIV-1 IIIB in MOLT-4 cells. The experiment in a line: Drug susceptibility assay, IIIB in MOLT-4 cells. To be noted: Human immunodeficiency virus 1, IIIB. Format: cell-based.
Text: as §5

A further series relates to HIV-1 BH10 in U937 cells. The series can be described thus: Drug susceptibility assay, BH10 in U937 cells. Format: cell-based.
Text: as §5

A short description of series [5]: Cellular cytotoxicity, 4 days, MTS, MT-2. Format: cell-based. To be noted: human, Table 21, read-out: Average CC50 Values ± Standard Deviation, MT-2.
Method: (§6) Cell viability was measured by standard MTT or MTS staining.
A short description of series [6]: Cellular cytotoxicity, 4 days, MTS, MT-4. Particulars: human, Average CC50 Values ± Standard Deviation, MT-4, Table 21, 4 days, MTS. As to the method:
Following drug exposure for 4 days, cell viability was measured by MTS staining and CC50 values were determined. Drug concentrations ranged from 0.005 μM to 100 μM.
The preceding data, allows us to calculate selectivity index (SI) values, based on the ratio of CC50 to EC50 in MT-4 cells (the standard assay used in this work).

Series [7] can be described thus: Cellular cytotoxicity, 4 days, six HIV-1 host cell lines (ranges). The class given is cell-based. To be noted: human, read-out: Mean CC50 Range.
Method: as §6
A short description of series [8]: Longer term cytotoxicity, 9 days, MTS, HeLa. To be noted: human.
Method: as §6
Cells were repeatedly treated with a range of drug concentrations (0.005 to 100 μM) for 9 (HeLa) or 12 days (HuH7, HepG2).
Where [9] appears, read: Cell Protection Assay tables, unit inferred, read-out: EC50, BH10.
Setting [10] is: Table 8, CPE readout, read-out: Average EC50 Values ± Standard Deviation, W.T.
Setting [11] is: range over the three agents, read-out: mean EC50 values, WT BH10 virus, CPE assay.
Where [12] appears, read: Human immunodeficiency virus 1, MT4, read-out: Average EC50 Values ± Standard Deviation, K103N.
Where [13] appears, read: Human immunodeficiency virus 1, MT4, read-out: EC50, K103N.
The mark [14] stands for this setting: Human immunodeficiency virus 1, NL43, MT4, read-out: Average EC50 Values ± Standard Deviation, W.T.
The mark [15] stands for this setting: Human immunodeficiency virus 1, NL43, MT4, read-out: Average EC50 Values ± Standard Deviation, host MT-4, virus NL4-3.
Setting [16] is: Table 5, preliminary data from a single experiment, read-out: Average IC50 Values, DNA Pol Gamma.
Where [17] appears, read: U-937, Table 17, read-out: Average EC50 Values ± Standard Deviation, host U937, virus IIIB.
[18] abbreviates: MOLT-4, Table 17, read-out: Average EC50 Values ± Standard Deviation, host MOLT-4, virus IIIB.
The mark [19] stands for this setting: Human immunodeficiency virus 1, U-937, Table 17, read-out: Average EC50 Values ± Standard Deviation, host U937, virus BH10.

Values joined by “and” are separate entries in the source; they are usually repeats but may differ in a detail not shown here. Equal values may be shown once. Read-outs that look alike come from different tables or passages of the source.

In general, IC50 refers to the point on the concentration scale where inhibition reaches its midpoint. The EC50 is the concentration needed to bring the measured effect to its halfway point. In general, CC50 refers to the concentration at which the toxic effect on the cells reaches its halfway point. As to `CO[P@](=O)(c1cc(C)cc(/C=C/C#N)c1)c1c(C(N)=O)[nH]c2ccc(Cl)c(F)c12` [Compound I, (2-Carbamoyl-5-chloro-4-fluoro-1H-indol-3-yl)-[3-((E)-2-cyano-vinyl)-5-methyl-phenyl]-(R)-phosphinic acid methyl ester], the half-maximal inhibitory concentration (IC50) came out at 118 µM in [1] (Average IC50 Values, DNA Pol Gamma, Table 5, preliminary data from a single experiment) and 118 µM in series [1] (Mean IC50 Values ± Standard Deviation, DNA Pol Gamma, Table 6, N=4). The EC50 in series [2] (setting [9]) is 0.28 ± 0.072 nM; in series [2] (setting [10]) it was 0.3 ± 0.1 nM; in series [2] (setting [11]), 0.1 to 0.7 nM; in series [3] (setting [12]) it was 0.3 ± 0.1 nM; in series [3] (setting [13]) it was 0.26 ± 0.057 nM; in the series with HIV-1 NL4-3 w.t. virus (setting [14]) it was 2 ± 0.1 nM. Moreover, the half-maximal effective concentration (EC50) came out at 2 ± 0.1 nM in the series on HIV-1 NL4-3 w.t. virus (setting [15]); 0.5 ± 0.1 nM in the series on HIV-1 IIIB in U937 cells (U-937, read-out: Average EC50 Values ± Standard Deviation, host U937, virus IIIB); 0.7 ± 0.1 nM in series [4] (MOLT-4, read-out: Average EC50 Values ± Standard Deviation, host MOLT-4, virus IIIB); 0.6 ± 0.2 nM in the series on HIV-1 BH10 in U937 cells (Human immunodeficiency virus 1, U-937, read-out: Average EC50 Values ± Standard Deviation, host U937, virus BH10). The “Fold Change, W.T.” value (in [2]; in the series on HIV-1 NL4-3 w.t. virus) was 1 fold each time. The “Fold Change, K103N” value in series [3] turned out to be 1.0 ± 0.3 fold. Moreover, the figures for the cytotoxic concentration (CC50) at 4 days in series [5], in series [6] and in series [7] were 23.5 ± 1 µM, 27 µM and 16.6 to 32.9 µM, respectively. The compound further gave a CC50 at 9 days in series [8] of 27.9 ± 1.14 µM.
Turning to `CO[P@](=O)(c1cc(C)cc(/C=C/C#N)c1)c1c(C(N)=O)[nH]c2ccc(Cl)cc12` [Compound III, (2-Carbamoyl-5-chloro-1H-indol-3-yl)-[3-((E)-2-cyano-vinyl)-5-methyl-phenyl]-(R)-phosphinic acid methyl ester], the IC50 in series [1] (setting [16]) is ≥ 60 µM and 60.1 µM. Moreover, the concentration for a half-maximal effect (EC50) in [2] (setting [9]) was 0.15 ± 0.11 nM; in series [2] (setting [10]) it was 0.2 ± 0.1 nM; in [2] (setting [11]) it was 0.1 to 0.7 nM; in series [3] (setting [12]), 0.1 ± 0.1 nM; in series [3] (setting [13]), 0.14 ± 0.052 nM; in the series with HIV-1 NL4-3 w.t. virus (setting [14]), 1.7 ± 0.3 nM. For the same compound, the 50% effective concentration (EC50) with HIV-1 NL4-3 w.t. virus (setting [15]) came to 1.7 ± 0.3 nM; with HIV-1 IIIB in U937 cells (setting [17]), 0.5 ± 0.1 nM; in [4] (setting [18]) it was 0.6 ± 0.1 nM; in the series with HIV-1 BH10 in U937 cells (setting [19]), 1.3 ± 0.6 nM. The “Fold Change, W.T.” value (in [2]; in the series on HIV-1 NL4-3 w.t. virus) was 1 fold throughout. Also, the “Fold Change, K103N” value in series [3] came out at 1.1 ± 0.3 fold. Also, the CC50 at 4 days in series [5] (MT-2 cells (leukemia T cells)) is 25.9 ± 2.1 µM; in series [6] (MT-4 cells (leukemia T cells)), 18.6 µM; in series [7] it was 14.8 to 50 µM. The compound further registered a 50% cytotoxic concentration (CC50) at 9 days in [8] (HeLa epithelial cells) of 29.9 ± 2.09 µM.
As to `O=C1Nc2ccc(Cl)cc2C(C#CC2CC2)(C(F)(F)F)O1` (stereo not drawn) [EFV, 6-chloro-4-cyclopropylethynyl-4-trifluoromethyl-1,4-dihydro-2H-3,1-benzoxazin-2-one, reference compound], the IC50 in series [1] (setting [16]) is 116 µM; in [1] (Table 6, N=4, read-out: Mean IC50 Values ± Standard Deviation, DNA Pol Gamma), no less than 100 µM. For the same compound, the EC50 in series [2] (setting [10]) was 0.6 ± 0.1 nM; in series [2] (setting [11]), 0.1 to 0.7 nM; in series [3] (setting [12]), 41 ± 13 nM; in the series with HIV-1 NL4-3 w.t. virus (setting [14]), 2.3 ± 0.2 nM; in the series with HIV-1 NL4-3 w.t. virus (setting [15]) it was 2.3 ± 0.2 nM; with HIV-1 IIIB in U937 cells (setting [17]) it was 1.5 ± 0.8 nM. The concentration giving a half-maximal response (EC50) in series [4] (setting [18]) came to 0.9 ± 0.2 nM; in the series with HIV-1 BH10 in U937 cells (setting [19]) it was 1.9 ± 0.8 nM. Further, the half-maximal cytotoxic concentration (CC50) at 4 days in series [5] (MT-2 cells (leukemia T cells)) is 24.6 ± 4.5 µM; in series [6] (MT-4 cells (leukemia T cells)), 44.1 ± 18.2 µM; in series [7] it was 23.2 to 51 µM. This compound had a CC50 at 9 days in series [8] (HeLa epithelial cells) of 48.6 ± 2.5 µM.

Values taken from patent publication US8486991B2, “Enantiomerically pure phosphoindoles as HIV inhibitors” (Idenix Pharmaceuticals, Inc., priority 2006, dated 2013).
